The source made the active and inactive calls.
Tests used:
[1] = biological target: Heat shock protein HSP 90-alpha (Homo sapiens, UniProt P07900); type: functional, organism-based
[2] = HepG2 cell cytotoxicity, dose response, cytotoxicity control for Shn3 inhibitor project, CellTiter-Glo, cherry-picked (AID 624134); type: functional, cell-based
[3] = Shn3 3'UTR reporter inhibitors, dose response, cell-based, Clone20 osteoblasts, firefly luciferase, cherry-picked (AID 624132); type: functional;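 further: firefly luciferase luminescence from reporter carrying the Shn3 3'UTR in osteoblasts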
[4] = control 3'UTR Renilla luciferase suppression, dose response, counter-screen for Shn3 inhibitor project, cell-based, Clone20-Shn3RL, cherry-picked (AID 624133); type: functional
cells [5] = type: functional, cell-based
cells [6] = type: functional, cell-based; remark: listed apart in the source
[7] = biological target: T1, Ubiquitin-conjugating enzyme E2 N (Homo sapiens, UniProt P61088); type: functional;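 further: Dose-response confirmation in a TR-FRET assay detecting UBC13-driven polyubiquitin chain formation, inhibition measured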
T1 sequence (P61088 whole entry): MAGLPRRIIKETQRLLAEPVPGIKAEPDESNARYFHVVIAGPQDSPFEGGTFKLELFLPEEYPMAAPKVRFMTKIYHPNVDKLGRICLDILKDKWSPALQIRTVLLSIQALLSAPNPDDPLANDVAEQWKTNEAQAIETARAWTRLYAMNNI

Protein skinhead-1 = biological target: T2, Protein skinhead-1 (Caenorhabditis elegans, UniProt P34707); type: functional
T2 sequence (P34707 whole entry): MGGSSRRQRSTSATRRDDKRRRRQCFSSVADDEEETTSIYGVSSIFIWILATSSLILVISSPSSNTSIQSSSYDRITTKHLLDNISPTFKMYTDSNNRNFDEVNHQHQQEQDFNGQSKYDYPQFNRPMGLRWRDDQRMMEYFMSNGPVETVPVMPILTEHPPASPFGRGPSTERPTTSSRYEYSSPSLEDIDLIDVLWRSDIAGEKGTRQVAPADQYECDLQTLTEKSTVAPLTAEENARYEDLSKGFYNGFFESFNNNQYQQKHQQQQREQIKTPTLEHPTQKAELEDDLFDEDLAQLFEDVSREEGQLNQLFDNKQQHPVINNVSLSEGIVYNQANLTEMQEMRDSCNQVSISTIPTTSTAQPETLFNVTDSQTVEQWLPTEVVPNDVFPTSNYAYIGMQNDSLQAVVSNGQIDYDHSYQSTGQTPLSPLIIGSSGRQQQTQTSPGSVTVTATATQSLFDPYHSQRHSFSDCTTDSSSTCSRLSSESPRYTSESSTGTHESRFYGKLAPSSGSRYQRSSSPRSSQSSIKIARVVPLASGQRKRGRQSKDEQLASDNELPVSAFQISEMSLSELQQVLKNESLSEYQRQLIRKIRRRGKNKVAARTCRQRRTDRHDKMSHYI

[8] = biological target: T3, High affinity choline transporter 1 (Homo sapiens, UniProt Q9GZV3); assay: CHT inhibitors, dose response, cell-based, 5-point CRC, membrane potential dye (AID 504840); type: functional
T3 sequence (Q9GZV3 whole entry): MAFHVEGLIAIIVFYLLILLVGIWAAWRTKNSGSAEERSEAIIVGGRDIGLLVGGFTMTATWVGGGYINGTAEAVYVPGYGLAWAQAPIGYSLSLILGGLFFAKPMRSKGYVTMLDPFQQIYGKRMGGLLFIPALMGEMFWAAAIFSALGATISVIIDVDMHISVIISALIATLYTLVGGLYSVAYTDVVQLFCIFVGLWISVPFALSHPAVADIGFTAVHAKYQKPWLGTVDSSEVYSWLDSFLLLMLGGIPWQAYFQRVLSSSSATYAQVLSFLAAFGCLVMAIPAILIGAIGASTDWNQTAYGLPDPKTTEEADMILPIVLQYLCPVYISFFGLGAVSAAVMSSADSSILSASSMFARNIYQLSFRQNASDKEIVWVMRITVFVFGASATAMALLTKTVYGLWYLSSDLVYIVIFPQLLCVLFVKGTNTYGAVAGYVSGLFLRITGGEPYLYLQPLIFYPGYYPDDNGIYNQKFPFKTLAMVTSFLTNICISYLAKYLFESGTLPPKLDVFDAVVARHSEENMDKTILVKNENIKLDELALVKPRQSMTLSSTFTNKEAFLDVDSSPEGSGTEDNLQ

[9] = biological target: T4, Microphthalmia-associated transcription factor (Homo sapiens, UniProt O75030); assay: TRPM1 promoter luciferase signal decrease, dose response, MITF inhibitor project, cell-based, SK-MEL-5, cherry-picked, set 3 (AID 493073); type: functional
T4 sequence (O75030 whole entry): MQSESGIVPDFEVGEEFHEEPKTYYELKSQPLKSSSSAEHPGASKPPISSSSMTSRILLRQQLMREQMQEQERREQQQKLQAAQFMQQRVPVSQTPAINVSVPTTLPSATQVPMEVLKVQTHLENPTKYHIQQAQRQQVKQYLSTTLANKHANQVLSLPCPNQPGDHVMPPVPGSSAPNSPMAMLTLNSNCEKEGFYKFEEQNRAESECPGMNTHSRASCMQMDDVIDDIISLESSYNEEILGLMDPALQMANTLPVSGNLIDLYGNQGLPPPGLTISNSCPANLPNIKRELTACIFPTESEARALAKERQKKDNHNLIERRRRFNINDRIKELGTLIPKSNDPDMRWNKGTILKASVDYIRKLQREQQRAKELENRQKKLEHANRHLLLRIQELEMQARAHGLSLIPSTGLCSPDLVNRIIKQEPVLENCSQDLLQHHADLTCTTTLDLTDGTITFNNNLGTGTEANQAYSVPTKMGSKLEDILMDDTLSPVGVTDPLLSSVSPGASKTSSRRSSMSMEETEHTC

[10] = biological target: T5, Replicative DNA helicase DnaB (Mycobacterium tuberculosis, UniProt P9WMR3); assay: DnaB intein splicing inhibitors, dose response, biochemical, cell-free fluorescence (AID 449749); type: functional
T5 sequence (P9WMR3 whole entry): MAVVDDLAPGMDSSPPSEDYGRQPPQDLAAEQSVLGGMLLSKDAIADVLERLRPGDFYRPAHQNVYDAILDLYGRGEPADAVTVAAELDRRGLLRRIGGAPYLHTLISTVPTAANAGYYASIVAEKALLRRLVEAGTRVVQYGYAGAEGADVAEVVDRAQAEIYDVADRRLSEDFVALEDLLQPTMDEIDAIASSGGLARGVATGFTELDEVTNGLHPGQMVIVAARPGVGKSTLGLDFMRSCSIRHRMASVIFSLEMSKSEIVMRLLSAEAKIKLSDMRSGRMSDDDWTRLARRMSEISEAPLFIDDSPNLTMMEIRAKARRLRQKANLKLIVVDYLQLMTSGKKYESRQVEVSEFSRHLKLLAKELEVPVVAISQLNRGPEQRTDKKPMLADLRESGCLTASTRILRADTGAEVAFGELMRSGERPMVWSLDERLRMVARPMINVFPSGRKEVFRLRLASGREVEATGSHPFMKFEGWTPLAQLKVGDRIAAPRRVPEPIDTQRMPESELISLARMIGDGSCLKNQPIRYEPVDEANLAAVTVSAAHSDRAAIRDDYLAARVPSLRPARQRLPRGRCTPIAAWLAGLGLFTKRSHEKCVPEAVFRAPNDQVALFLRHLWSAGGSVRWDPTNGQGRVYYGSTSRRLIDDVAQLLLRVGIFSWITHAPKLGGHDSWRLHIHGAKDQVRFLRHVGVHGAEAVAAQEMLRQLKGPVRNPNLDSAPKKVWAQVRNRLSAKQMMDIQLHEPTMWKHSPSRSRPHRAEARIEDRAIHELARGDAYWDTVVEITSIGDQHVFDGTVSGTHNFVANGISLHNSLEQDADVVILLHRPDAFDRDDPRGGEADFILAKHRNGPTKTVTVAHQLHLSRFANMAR

Streptococcus = assay: Group A Streptococcus viability loss, dose response, counter-screen for streptokinase expression inhibitor project, luminescence, BacTiterGlo (AID 1915); type: functional, organism-based;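 further: potency for reduction of bacterial viability or growth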
Streptokinase A = biological target: T6, Streptokinase A (Streptococcus pyogenes serotype M1, UniProt P10520); assay: S. pyogenes streptokinase expression inhibitors, potency, dose response, plasminogen activation absorbance, OD405 (AID 1914); type: functional, Streptococcus pyogenes M1 GAS;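 further: secreted streptokinase activity via plasminogen activation per viability signal from cell pellet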
T6 sequence (P10520 whole entry): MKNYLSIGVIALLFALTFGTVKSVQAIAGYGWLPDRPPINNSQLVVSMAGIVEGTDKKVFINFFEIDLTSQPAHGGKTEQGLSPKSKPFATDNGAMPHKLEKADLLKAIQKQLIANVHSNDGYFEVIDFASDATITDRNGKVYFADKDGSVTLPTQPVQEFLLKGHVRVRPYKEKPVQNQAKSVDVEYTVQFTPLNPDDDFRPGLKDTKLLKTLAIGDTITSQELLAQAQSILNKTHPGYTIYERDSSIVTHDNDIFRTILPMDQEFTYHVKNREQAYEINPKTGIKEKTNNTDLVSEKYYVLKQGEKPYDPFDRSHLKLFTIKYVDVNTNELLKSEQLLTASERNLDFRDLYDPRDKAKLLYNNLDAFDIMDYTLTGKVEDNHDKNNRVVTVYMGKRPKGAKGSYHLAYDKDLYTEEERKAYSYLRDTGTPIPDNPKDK

[11] = test system: Streptococcus sp. 'group A'; assay: growth inhibition of control SK(-) GAS strain, dose response, counter-screen for streptokinase expression inhibitor project, luminescence, kanamycin, BacTiterGlo, confirmation (AID 1900); type: functional, organism-based
[12] = biological target: T7, Polyadenylate-binding protein 1 (Homo sapiens, UniProt P11940); assay: PABP1 MLLE–PAM2 interaction inhibitors, dose response, miRNA deadenylation inhibitor project, biochemical, fluorescence polarization, Cy5-PAM2 peptide, secondary (AID 602260); type: functional; conditions: read-out: IC50_Mean
T7 sequence (P11940 whole entry): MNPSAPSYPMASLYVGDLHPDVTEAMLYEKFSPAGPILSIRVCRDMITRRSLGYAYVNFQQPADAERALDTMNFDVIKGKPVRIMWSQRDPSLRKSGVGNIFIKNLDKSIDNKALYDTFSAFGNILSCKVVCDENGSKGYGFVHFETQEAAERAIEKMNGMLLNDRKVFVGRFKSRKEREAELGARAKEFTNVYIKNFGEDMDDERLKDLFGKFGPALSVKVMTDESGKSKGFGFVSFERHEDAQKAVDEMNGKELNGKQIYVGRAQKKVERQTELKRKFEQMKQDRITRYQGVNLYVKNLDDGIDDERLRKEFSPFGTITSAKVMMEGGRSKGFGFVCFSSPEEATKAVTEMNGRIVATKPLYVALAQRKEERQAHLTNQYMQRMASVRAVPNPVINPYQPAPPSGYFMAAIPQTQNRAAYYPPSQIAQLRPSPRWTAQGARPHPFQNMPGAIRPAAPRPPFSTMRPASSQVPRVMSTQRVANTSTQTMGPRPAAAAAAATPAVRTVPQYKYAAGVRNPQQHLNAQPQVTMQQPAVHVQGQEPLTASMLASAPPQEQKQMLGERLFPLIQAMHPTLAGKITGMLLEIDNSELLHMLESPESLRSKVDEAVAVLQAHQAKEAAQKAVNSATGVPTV

[13] = biological target: T7, Polyadenylate-binding protein 1; assay: PABP1 MLLE–PAM2 binding inhibitor potency, dose response, biochemical, fluorescence polarization, FITC-PAM2 peptide (AID 602259); type: functional; conditions: read-out: IC50_Mean
[14] = microbe, parasite or virus in culture; type: functional; conditions: Mycobacterium tuberculosis

CC(CCc1ccccc1)NC(=O)c1ccc(Br)cc1 (stereo not drawn)
AC50 [1]: 2.6 µM (active)

Cc1cc2c(cc(C(=O)N3CCC(C(=O)NC4CCCC4)CC3)n2Cc2c(F)cccc2Cl)o1
AC50 [2]: 49.4 µM (active) | AC50 [3]: 4.81 µM (active) | AC50 [4]: 10 µM (active)

CC/C(NN1CCCCCC1)=C1/C(=O)NC(=O)N(c2ccc(C)cc2)C1=O
EC50 (cells [5]): > 350 µM (not active) | EC50 (cells [6]): > 350 µM (not active)

Cc1ccc(C(C(=O)NC(C)(C)C)N(Cc2ccccc2)C(=O)c2snc(C(N)=O)c2N)o1 (stereo not drawn)
IC50 [7]: > 20 µM (inactive)

CCOc1ccc(-c2nnc(-c3cccs3)o2)cc1
IC50 (Protein skinhead-1): > 100 µM (inactive)

O=C(C1=C[C@@H](C2CC2)C[C@@H](OCCCCO)O1)N1CCN(Cc2ccc3c(c2)OCO3)CC1
EC50 (cells [5]): > 350 µM (not active) | EC50 (cells [6]): > 350 µM (not active)

CC1CCN(Cc2nnnn2CCCC(=O)NCCc2cnn(C)c2)CC1
EC50 (cells [5]): > 350 µM (not active) | EC50 (cells [6]): > 350 µM (not active)

Cn1c(CC(=O)Nc2ccccc2)cc2ccccc21
EC50 (cells [5]): > 350 µM (not active) | EC50 (cells [6]): > 350 µM (not active)

CCC(NCCc1ccccc1)=C1C(=O)N(C)C(=O)N(C)C1=O
IC50 [8]: 13.8 µM (active)

COCCn1cc(C(=O)NCc2cccs2)c2c3ccccc3n(C)c2c1=O
IC50 (Protein skinhead-1): > 100 µM (inactive)

CC(C)OC(=O)c1cccc(-c2ccc(C=O)o2)c1
IC50 [8]: 14.5 µM (active)

CCc1ccc(-c2nn(-c3cc(Cl)ccc3[N+](=O)[O-])c(=O)c3ccccc23)cc1
IC50 (Protein skinhead-1): > 100 µM (inactive)

O=C(c1ccc([N+](=O)[O-])s1)N1CCN(c2ccccn2)CC1
AC50 [9]: 12.2 µM (active)

Clc1ccccc1-c1ccc(CN2CCN(c3ccccc3)CC2)o1
IC50 (Protein skinhead-1): > 100 µM (inactive)

OCCN(CCO)c1ccc(C(c2ccccc2Cl)c2ccc(N(CCO)CCO)cc2Cl)c(Cl)c1
IC50 (Protein skinhead-1): > 100 µM (inactive) | AC50 [10]: 1.91 µM (active) | EC50 (Streptococcus): 8.65 µM (active) | EC50 (Streptokinase A): 4.84 µM (active) | EC50 [11]: 4.01 µM (active)

CC(C)C(OC(=O)C1=Cc2ccccc2OC1)C(=O)NC1CCCC1 (stereo not drawn)
IC50 (Protein skinhead-1): > 100 µM (inactive)

COc1ccc(C(=O)C2CCCN(C(=O)C3CCOCC3)C2)cc1OC (stereo not drawn)
EC50 (cells [5]): > 350 µM (not active) | EC50 (cells [6]): > 350 µM (not active)

O=C(Nc1cccc(C(=O)N2CCCCC2)c1)c1ccccc1Br
IC50 [8]: 16.8 µM (active)

COc1ccc(Cl)cc1N=C(N)Nc1nc(O)cc(CSc2ccc(C)cc2)n1
AC50 [2]: > 70 µM (inactive) | AC50 [3]: 1.82 µM (active) | AC50 [4]: 21.5 µM (active)

CC(C)=CCc1c(O)cc(O)c2c(=O)c(O[C@@H]3O[C@@H](C)[C@H](O)[C@@H](O)[C@H]3O)c(-c3ccc(O)cc3)oc12
IC50 [7]: > 20 µM (inactive)

Cc1cc(-c2ccccc2)n(-c2ccc(C(=O)N3CCN(c4ncccn4)CC3)cc2)n1
IC50 [8]: 8.32 µM (active)

O=C(C=Cc1cccc(O)c1)c1ccccc1O
AC50 [1]: 2.81 µM (active)

O=C(Nc1ccc(S(=O)(=O)NC2=NCCCCC2)cc1)c1ccc(C(F)(F)F)cc1
IC50 [8]: 11.8 µM (active)

CNS(=O)(=O)c1ccc2c(c1)nc(S)n2C
IC50 (Protein skinhead-1): > 100 µM (inactive)

Cc1cccc(NC(=S)Nc2ccc(Cl)c(Cl)c2)c1
IC50 [12]: > 66 µM (inactive) | EC50 (Streptokinase A): 24.5 µM (active) | IC50 [13]: > 66 µM (inactive)

CCN(Cc1ccncc1)C(=O)c1cc(COc2ccc(F)cc2Cl)on1
IC50 [8]: 13.2 µM (active)

O=C(NCCCN1CCOCC1)c1cc2c3ccccc3nc-2c(-c2cccc(Br)c2)[nH]1
CC50 [14]: 19.4 µM (active) | IC50 [7]: > 20 µM (inactive)
